Source: a melting point compilation (Tetko et al.)

Row | SMILES | melting point
1 | N#CC1=C(N)OC2(C(=O)Nc3ccccc32)C2=C1CCCC2 (stereo not drawn) | 231 °C
2 | O=C(NCCBr)c1cc([N+](=O)[O-])cc([N+](=O)[O-])c1 | 140 °C
3 | Clc1ccc(Br)c(Cl)n1 | 70 °C
4 | Clc1cc(Cl)c(I)c(Cl)c1 | 56 to 58 °C
5 | CCOC(=O)N1COCc2c1ccc1cc3ccc4c(c3nc21)COCN4C(=O)OCC | 195 °C
6 | CCCCOCCOCCOC(C)=O | -32 °C
7 | N#Cc1cccc(C(=O)Cc2cccc(Cl)c2)c1 | 87.5 to 90.8 °C
8 | O=[N+]([O-])c1cccc(OCCCCBr)c1 | 62 to 63 °C
9 | CCCCNC(=O)c1ccc2cc(O)c(O)cc2c1 | 194 °C
10 | CC(CCc1ccccc1)NC(C)C(O)c1cc(I)c(O)c(I)c1 (stereo not drawn) | 212 °C
11 | ClC1Cc2cc3c(cc21)OCO3 (stereo not drawn) | 55 °C
12 | O=C(O)c1ccc2c(c1)CCO2 | 185 to 188 °C
13 | CCCCCCCCC=CCCCCCCCC(=O)OCC(COC(=O)CCCCCCCC=CCCCCCCCC)OC(=O)CCCCCCCC=CCCCCCCCC (stereo not drawn) | -32 °C
14 | CC12CCC(O)CC1CCC1C2C(=O)CC2(C)C1CCC2(O)C(=O)CO (stereo not drawn) | 213 °C
15 | Cc1nccc(-c2cccc(Br)c2)n1 | 66 to 69 °C
16 | Cc1cc(C)c2c(=O)n(-c3ccc(Cl)cc3)c(S)nc2n1 | 324 to 326 °C
17 | Clc1ccc(P(c2ccc(Cl)cc2)c2ccc(Cl)cc2)cc1 | 103 °C
18 | CCCCCCCC=CC(=O)O | 12 °C
19 | C#CCN1CCS(=O)(=O)CC1 | 114 to 116 °C
20 | CC1=C(C(=O)OC(C)C)C(c2ccco2)NC(=O)N1 (stereo not drawn) | 205 °C
21 | NC(=O)c1cc(Br)cc(Br)c1 | 182 °C
22 | CC(C)(CC(=O)O)C(=O)O | 140 °C
23 | CSC(S)=Nc1ccccc1C | 151 to 153 °C
24 | COc1ccc2cc(C(=O)c3cc4ccc(OC)cc4oc3=O)c(=O)oc2c1 | 271 °C
25 | Nc1ccc(Cl)cc1I | 40 to 42 °C

Row | SMILES | melting point
26 | CCCCCCCCOc1ccc(NC(=O)c2ccc(OC)cc2)cc1 | 152 to 154 °C
27 | Nc1cc(Cl)c(Cl)cc1[N+](=O)[O-] | 181 °C
28 | COC(=O)c1cc([N+](=O)[O-])cc([N+](=O)[O-])c1 | 110 °C
29 | Nc1ccc(Sc2cc(Cl)ccc2Cl)nc1 | 108 to 109 °C
30 | COc1c(Cl)c(Cl)cc(Cl)c1Cl | 88.5 °C
31 | N#CCc1cccc(Cl)c1Cl | 66 to 69 °C
32 | O=[N+]([O-])c1ccc2[nH]c(=S)[nH]c2c1 | 275 °C
33 | Oc1ccc2c(O)c3ccccc3cc2c1O | 208 °C
34 | COc1ccccc1N/N=C(/C#N)c1nc2ccccc2c(=O)[nH]1 | 255 °C
35 | CSc1ncccc1C(=O)NC(CC(C)C)C(=O)O (stereo not drawn) | 143 to 146 °C
36 | CCC(C)c1ccccc1 (stereo not drawn) | -75 °C
37 | Cc1cccc(NC(N)=O)c1 | 138 to 143 °C
38 | O=C(c1ccc([N+](=O)[O-])cc1)c1noc(-c2ccc(Cl)cc2)c1S(=O)(=O)c1ccccc1 | 210 °C
39 | O=[N+]([O-])c1cccc(-c2nnc3n2NC(c2ccco2)S3)c1 (stereo not drawn) | 190 °C
40 | C#CCCCCC | -81 °C
41 | O=S(=O)(Cl)c1sc(Cl)cc1Br | 34 to 36 °C
42 | CCc1n[nH]c2c1C(c1ccccc1)C(C#N)=C(N)O2 (stereo not drawn) | 192 to 196 °C
43 | CC1CCC(=O)N1 (stereo not drawn) | 43 °C
44 | Cc1ccc(-c2onc(C(=O)c3ccc(Cl)cc3)c2S(=O)(=O)c2ccccc2)cc1 | 149 °C
45 | O=C1CNCCN1 | 132 °C
46 | COC(=O)c1ccccc1C(=O)c1ccccc1 | 52 °C
47 | O=C(Nc1ccccn1)c1cc([N+](=O)[O-])cc([N+](=O)[O-])c1 | 201 °C
48 | IC=CI | -14 °C
49 | NNC(=O)c1csc(-c2cccc(Cl)c2Cl)n1 | 230 to 233 °C
50 | COc1cc(N)c(Cl)cc1C(=O)NC1CCN(CCCOc2ccc(F)cc2)CC1OC (stereo not drawn) | 110 °C

Row | SMILES | melting point
51 | COc1cc(Cl)c(OC)cc1Cl | 134 °C
52 | O=[N+]([O-])c1cc([N+](=O)[O-])c(/C=C/c2ccc3c(c2)OCO3)cc1/C=C\c1ccc2c(c1)OCO2 | 215 °C
53 | CN(C)c1ccc(C=C2N=C(c3ccccc3)OC2=O)cc1 | 204 to 205 °C
54 | CCOC(=O)C(C#N)=C1CC(SC)=C(C(=O)OCC)C(=N)N1c1ccc(OC)cc1 | 172 °C
55 | CC12CCC(C(=CC(N)=O)C1=O)C2(C)C (stereo not drawn) | 152 °C
56 | C=C(C)C=CC(=C)C | -9 °C
57 | O=C(C(=O)C(Br)c1ccccc1)C(Br)c1ccccc1 (stereo not drawn) | 124 °C
58 | CCOC(=O)c1c(SC)nn(C(=O)c2cccc(C)c2)c1C | 115 °C
59 | COc1ccc(C(=O)c2ccccc2C(=O)O)cc1 | 146 °C
60 | CCCCCCCCCCCCCCCC(=O)OCCOC(=O)CCCCCCCCCCCCCCC | 72 °C
61 | COC(=O)c1ccc2cc[nH]c2c1 | 79 °C
62 | O=C(Nc1cccc2c1c(S(=O)(=O)O)cc1oc(-c3ccccc3)nc12)c1ccccc1 | 276 °C
63 | NNC(=O)c1cccs1 | 139 °C
64 | O[C@@H]1C#CCCCCC#C[C@@H](O)CC1 | 154 °C
65 | ON=C(C1CC1)C1CC1 | 76.5 °C
66 | O=C(C=Cc1ccc(Cl)c(Cl)c1)C=Cc1ccc(Cl)c(Cl)c1 | 175 to 177 °C
67 | COc1ccc2c(c1)CCCN2 | 42.5 °C
68 | Cc1ccccc1NC(=O)C(C(F)(F)F)C(F)(F)F | 193 to 195 °C
69 | Cc1ccc(S(=O)(=O)OCC(C)OS(=O)(=O)c2ccc(C)cc2)cc1 (stereo not drawn) | 68 to 70 °C
70 | Sc1nc(-c2ccccc2)c(-c2ccccc2)o1 | 253 °C
71 | O=Cc1ccc(-c2ccc(F)c(C(F)(F)F)c2)o1 | 89 to 91 °C
72 | CCOC(=O)c1cc(C(=O)O)c([N+](=O)[O-])cc1[N+](=O)[O-] | 154 °C
73 | O=Cc1cccn1S(=O)(=O)c1ccccc1[N+](=O)[O-] | 139 to 141 °C
74 | CC(=O)Nc1cc(F)ccc1C(=O)O | 212 to 216 °C
75 | CC1(C)CC(=O)c2cc(-c3ccccc3)n(Cc3cccnc3)c2C1 | 146 to 148 °C

Row | SMILES | melting point
76 | Nc1cnn(-c2ccccc2)c(=O)c1Br | 224 °C
77 | CC(C)CC(C)(N)C(=O)O (racemic) | 300 °C
78 | CC(=Cc1ccc(F)cc1)[N+](=O)[O-] | 64 to 67 °C
79 | COc1ccccc1F | -39 °C
80 | Ic1ccccc1Cn1cncn1 | 67 to 69 °C
81 | O=C1CC(c2cccc(C3=NN(c4ccccc4)C(=O)C3)c2)=NN1c1ccccc1 | 263 °C
82 | O=C(NC1Cc2ccccc21)c1ccccc1 (stereo not drawn) | 157 °C
83 | Cn1cc2cc([N+](=O)[O-])ccc2n1 | 129 °C
84 | O=C(O)c1ccc(C#Cc2ccccc2)o1 | 212 to 213 °C
85 | O=C(O)c1cc([N+](=O)[O-])cnc1O | 246 °C
86 | O=C(O)c1ccc(C(F)(F)F)nc1Cl | 120 to 122 °C
87 | COC(=O)C1=C(C)NC(C)=C(C(=O)OC)C1c1ccccc1[N+](=O)[O-] | 173 °C
88 | N#CC(C(=O)N1CCOCC1)=C(SCc1ccccc1)SCc1ccccc1 | 123 °C
89 | C1=CCc2ccccc2C1 | 25 °C
90 | N#Cc1cc(N)ccc1-n1cccc1 | 135 to 136 °C
91 | C=CCN(CC=C)C(=O)CCl | 25 °C
92 | CCCCCCCCCCCCCC(CCCCCCCCCCCC)CCCCCCCCCCCC | 13.7 °C
93 | CN1CCN(c2ccccc2C=O)CC1 | 44 to 48 °C
94 | C#CC1(O)CCC2C3CCC4CC(O)CCC4(C)C3CCC21C (stereo not drawn) | 257 °C
95 | NNC(=O)C1CC1C(=O)NN (stereo not drawn) | 187 to 191 °C
96 | CC/C(=C(/CC)c1ccc(O)cc1)c1ccc(O)cc1 | 172 °C
97 | N#CC1C(=S)NC2(C(=O)Nc3ccccc32)C2=C1CCCC2 (stereo not drawn) | 222 °C
98 | Brc1ccc(N(c2ccc(Br)cc2)c2ccc(Br)cc2)cc1 | 142 °C
99 | c1ccc2c(c1)-c1ccccc1-2 | 114 to 115 °C
100 | COc1ccc(C=CC(=O)c2ccc3ccccc3c2)cc1 | 92 to 95 °C

Row | SMILES | melting point
101 | O=C=Nc1ccccc1[N+](=O)[O-] | 41 °C
102 | O=C1CCCCCN1c1ccccc1 | 57 °C
103 | CC(C)(C)OC(=O)C(C)(C)Sc1nnc(N)s1 | 175 to 176 °C
104 | O=C(NNc1ccccc1)C1CCCCC1 | 164 °C
105 | Cc1nc2scc(-c3ccccc3)c2c(=O)n1NC(=O)c1ccc(Cl)cc1Cl | 290 to 292 °C
106 | CN(c1c(F)c(F)c(F)c(F)c1F)N(O)O | 39.5 °C
107 | CC(C)(C)c1ncc(C(=O)Nc2cc(C(F)(F)F)cc(C(F)(F)F)c2)nc1Cl | 99 °C
108 | CCc1ccc(C(c2ccc(C(c3ccc(CC)o3)c3ccc(CC)o3)cc2)c2ccc(CC)o2)o1 | 81 °C
109 | S=C(SN1CCOCC1)N1CCOCC1 | 139 °C
110 | N#C/C(=C/c1cccnc1)c1nc(-c2ccccc2)cs1 | 164 °C
111 | Oc1ccc(Nc2ccc(O)cc2)cc1 | 174 °C
112 | CC(CCC(=O)O)Cc1ccccc1 (stereo not drawn) | 56 °C
113 | CSCN1C(=O)NC(c2ccccc2)(c2ccccc2)C1=O | 124 to 131 °C
114 | NC(=O)CCCNC(=C1C=C(F)C=CC1=O)c1ccc(Cl)cc1 | 134 °C
115 | Cc1nn(C)c2sc(C(=O)Cl)cc12 | 165 to 167 °C
116 | CC(C)(C)OC(=O)N1CCC(C(=O)c2ccc(F)cc2)CC1 | 89 to 91 °C
117 | O=C(Nc1cccc2cc(OC(=O)c3ccccc3)ccc12)c1ccccc1 | 222 to 223 °C
118 | N#C/C(=C\c1ccccc1O)c1nc2ccccc2s1 | 188 °C
119 | CC(C)(C)OC(=O)N1CCN(Cc2ccc(CO)cc2)CC1 | 52 to 53 °C
120 | CCNc1cc2oc(=O)cc(C)c2cc1C | 168 to 170 °C
121 | CC(CO)c1ccccc1 (stereo not drawn) | -13 °C
122 | O=C1C2=C(C(=O)c3ccccc31)C1(CC1)C21CC1 | 103 °C
123 | N#CC1(OC(=O)c2ccccc2)Cc2ccccc21 (stereo not drawn) | 112 °C
